Data on five compounds can be found in patent publication US5808139A (Ligand Pharmaceuticals Incorporated, priority 1994, dated 1998).

Entries after “also recorded” stand apart in the source; their conditions may differ.

For assay [1] the following is noted: Wall et al., J. Nat. Prod. 1989; cited from earlier work.
The test system of assay [2] is endometrium of the uterus. Nature of the assay: Decidualization assay in pseudopregnant mice, oil-induced uterine weight gain. In kind it is in vivo. The following applies: 5 mg. As for the experimental part:
A successful pregnancy requires not only the effective collision and fusion of egg and spermatozoon, but also the provision of a receptive and supportive uterus. The preparation of the endometrium of the uterus for implantation (i.e. decidualization) starts well before the blastocyst arrives in the uterus.
Psuedopregnant mice (i.e. mated with vasectomized males) were used to establish the assay system. […] At 16 hours of Day 4, a small volume of sesame oil (10 μl) was introduced to the lumen of the right uterine horn to serve as a decidual stimulus. The left horn was left undisturbed to serve as an internal control. Autopsies were performed on Day 7 to assess uterine wet weight gains in the stimulated versus non-stimulated uterine horns.
Each of these compounds was intraluminally administered in an appropriate dosage on Day 4 along with the sesame oil administration.

Assay [3] has as its target T1, human progesterone receptor (Homo sapiens, UniProt P06401).
T1 sequence (P06401 1-933): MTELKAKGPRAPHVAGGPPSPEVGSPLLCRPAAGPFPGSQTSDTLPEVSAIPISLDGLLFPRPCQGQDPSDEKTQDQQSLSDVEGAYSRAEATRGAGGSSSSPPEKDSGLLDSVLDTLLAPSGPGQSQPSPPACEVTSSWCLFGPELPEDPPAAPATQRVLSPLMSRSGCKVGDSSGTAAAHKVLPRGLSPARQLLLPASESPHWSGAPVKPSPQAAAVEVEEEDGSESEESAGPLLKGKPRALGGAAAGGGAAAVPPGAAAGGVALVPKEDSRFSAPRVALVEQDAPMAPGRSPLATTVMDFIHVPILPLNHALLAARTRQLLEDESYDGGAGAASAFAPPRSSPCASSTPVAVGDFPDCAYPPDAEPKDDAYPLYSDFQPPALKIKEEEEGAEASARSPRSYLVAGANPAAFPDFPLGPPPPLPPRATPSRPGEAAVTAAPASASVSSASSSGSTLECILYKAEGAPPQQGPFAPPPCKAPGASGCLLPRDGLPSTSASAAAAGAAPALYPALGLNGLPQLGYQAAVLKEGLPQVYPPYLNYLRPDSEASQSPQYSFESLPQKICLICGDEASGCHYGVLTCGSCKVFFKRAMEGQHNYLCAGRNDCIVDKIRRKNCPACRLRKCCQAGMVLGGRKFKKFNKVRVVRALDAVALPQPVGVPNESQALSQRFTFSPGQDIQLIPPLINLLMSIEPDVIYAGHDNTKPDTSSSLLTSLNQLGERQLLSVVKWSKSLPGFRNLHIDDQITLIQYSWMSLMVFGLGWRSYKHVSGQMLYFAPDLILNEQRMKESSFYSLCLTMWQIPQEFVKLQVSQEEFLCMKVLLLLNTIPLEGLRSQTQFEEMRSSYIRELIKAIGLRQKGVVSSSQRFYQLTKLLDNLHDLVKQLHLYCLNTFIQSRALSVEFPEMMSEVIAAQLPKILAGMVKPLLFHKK
The experiment in a line: Progesterone receptor binding (displacement of 3H-progesterone, whole cell extract of transfected CV-1 cells). Details: expressed in transfected cells; host or cells: CV-1 cells (calcium phosphate transfection), whole cell extract. On the technique in general: Loss of bound radioactivity is the signal in a displacement assay; it reports binding, not function.

In assay [4] the test system is progesterone receptor (T47D cells). Nature of the assay: Antagonist assay in T47D (human breast cancer) cells (Tables 1 and 2). Format: cell-based.
Assay [5] deals with human progesterone receptor altered at the Tau-1 location. The experiment in a line: Co-transfection assay in CV-1 cells, progesterone receptor altered at Tau-1, antagonist activity. Format: cell-based. The following applies: for Efficacy (% maximal response relative to RU-486), CV-1 cells: antagonist activity; for IC50: concentration required to reduce the maximal response by 50%, read-out: Potency (IC50), CV-1 cells. The procedure, abridged:
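CV-1 cells co-transfected with RSV-LTR-driven human PR (altered at Tau-1) and a hormone-responsive luciferase reporter; antagonism measured against a fixed agonist concentration. Luciferase in cell extracts read, triplicate points, potency from concentration-response; […].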

Another assay concerns T47D cells. Nature of the assay: Alkaline phosphatase activity in T47D cells (induction and its inhibition). Format: cell-based, human. Particulars: ligand alone; three days. From the text:
The functional activities of the cyclocymopol analogues in the human breast cell line, T47D, were also investigated. T47D cells have proven to be a particularly useful model to investigate the molecular actions of sex steroids because they contain endogenous functional receptors for, and respond to, progestins, and their respective antagonists. Moreover, these cells contain exceptionally high titers of progesterone receptors and are exquisitely sensitive to the actions of progestins in a manner quite similar to their actions in normal and neoplastic mammary epithelial cells. In T47D cells, progestins induce de novo synthesis of a plasma-associated alkaline phosphatase, which has been reported to be similar, if not identical, to the alkaline phosphatase present in the normal breast and human milk. These tests were conducted according to the following illustrative example. […] For routine induction of alkaline phosphatase, cells were treated for three days with two media changes and harvested as described below. […] Nuclei were sedimented at 2500 rpm, and the supernatant was saved as cytosol. The protein content of the cytosol was assayed by the method of Bradford. Alkaline phosphatase activity was determined by incubating one volume of cell extract with three volumes of 1 mg/ml p-nitrophenol phosphate prepared in DEAM (1M diethanolamine, pH=9, containing 2 mM magnesium chloride) at room temperature for 20 min. At the end of the incubation time, the reaction was stopped with an equal volume of 1N NaOH. Ten standards of p-nitrophenol were prepared in DEAM buffer and absorbance was read at 405 nm. Alkaline phosphatase activity is expressed as pmol p-nitrophenol formed/min/mg protein.

Assay [6] addresses T1, human progesterone receptor. Nature of the assay: Co-transfection (cis-trans) assay in CV-1 cells, agonist and antagonist mode. In kind it is cell-based. Details: expressed in transfected cells; host or cells: CV-1 cells (calcium phosphate transfection), whole cell extract. The following applies: antagonist mode with 10^-8 M progesterone. The source says:
This assay is described in further detail in U.S. Pat. Nos. 4,981,784 and 5,071,773, which are incorporated herein by reference. The co-transfection assay provides a method for identifying functional ligands (either agonists which mimic, or antagonists which inhibit, the effect of hormones) for ligand-responsive receptor proteins.
The co-transfection assay provides a mechanism to evaluate ability of a compound to function as an agonist or antagonist of the activity modulated by an intracellular receptor. The co-transfection assay mimics an in vivo system in the laboratory. In the co-transfection assay, a cloned gene for an intracellular receptor is introduced by transfection (a procedure to induce cells to take up foreign genes) into a background cell substantially devoid of endogenous intracellular receptors. This introduced gene directs the recipient cells to make the intracellular receptor protein. A second gene is also introduced (co-transfected) into the same cells in conjunction with the intracellular receptor gene. This second gene functions as a reporter for the transcription-modulating activity of the target intracellular receptor. The reporter acts as a surrogate for the products normally expressed by a gene under control of the target receptor and its natural hormone.
A preferred reporter gene is one which expresses the firefly enzyme luciferase. The co-transfection assay can detect small molecule agonists or antagonists of target intracellular receptors. Exposing the cells to an agonist ligand increases reporter activity in the transfected cells that can be conveniently measured, reflecting ligand-dependent, intracellular receptor-mediated increases in reporter transcription. To detect antagonists, the co-transfection assay is carried out in the presence of a constant concentration of an agonist known to induce a defined reporter signal. Increasing concentrations of a test antagonist will decrease the reporter signal. The co-transfection assay is therefore useful to detect both agonists and antagonists of specific intracellular receptors. It determines not only whether a compound interacts with a particular intracellular receptor, but also whether this interaction mimics (agonizes) or blocks (antagonizes) the effects of the natural regulatory molecules on target gene expression.
Co-transfected cells are exposed to a medium to which is added the potential ligand that is being evaluated. If the candidate ligand diffuses into the cell and binds to the receptor and the resulting complex functions as an agonist, it binds to the co-transfected reporter gene and initiates transcription. When that gene is one that expresses, for example, luciferase, luciferase is produced which catalyzes a light-emitting reaction with its substrate luciferin. Thus, after cell lysis and the introduction of luciferin, the amount of light produced relative to the concentration of candidate ligand used in the assay provides a measure of the potency and efficacy of the compound tested. Antagonist activity is evaluated by adding the candidate ligand and a known agonist to the co-transfected cells.
The receptor cDNA was introduced in a mammalian expression vector under the control of the Rous Sarcoma virus LTR. […] A reporter vector was also transfected, containing a firefly luciferase gene under the control of the hormone-responsive promoter. […] The level of luciferase activity was then measured in cell extracts. Light emission is directly proportional to the effectiveness of the hormone-receptor complex in activating gene expression.
A total of three replicates per concentration point were tested for each compound, and the EC50 was calculated for each positive response. Both agonist and antagonist activity for each test compound was determined in parallel.

Turning to 4-isocymobarbatol, the Antimutagen activity result in assay [1] is “highly active antimutagens”.

Usually Kd stands for the concentration at which binding is half-saturated. Usually IC50 stands for the concentration that inhibits the measured activity by half. For `C=C1C=C(C)CC(C)(C)C1Cc1ccc([N+](=O)[O-])cc1` (stereo not shown) [I, 1-Methylidene-6-(4'-nitrophenyl)methyl-3,5,5-trimethylcyclohex-2-ene], in assay [2] (vs oil control), the “Inhibition of decidualization weight gain” value is reported as “approximately 81%”. Further, the “Net Uterine Weight Gain” value in assay [2] (intraluminal, autopsy Day 7, oil alone control 334.7 +/- 41.0) came out at 63.9 ± 20.9 mg. In addition, the Kd in assay [3] was found to be 55 nM. In addition, the “Efficacy (% maximal response relative to RU-486), T47D cells” value in assay [4] (antagonist activity, relative to RU-486) was found to be 75%. Moreover, the IC50 in assay [4] (concentration required to reduce the maximal response by 50%, read-out: Potency (IC50), T47D cells) turned out to be 125 nM. Also, in assay [5], the “Efficacy (% maximal response relative to RU-486), CV-1 cells” value stood at 95% and the IC50 was 700 nM.

Regarding `C=C1CC[C@@H](Br)C(C)(C)[C@H]1Cc1cc(OC)c(Br)cc1OC(C)=O` [SO-51], in the assay with T47D cells, the “Agonist activity, alkaline phosphatase induction” value is recorded as “functional agonists; also recorded: increased the activity of intracellular alkaline phosphatase in a concentration-dependent manner”. Further, the “Progesterone receptor agonist/antagonist activity” value in assay [6] is given as “progesterone receptor agonist activity”.

Take `C=C1CC[C@@H](Br)C(C)(C)[C@H]1Cc1cc(OC)c(Br)cc1O` [SO-54, (3S)-cyclocymopol monomethyl ether]: in assay [3], the Kd was determined as 325 nM. Moreover, the “Agonist activity, alkaline phosphatase induction” value in the assay with T47D cells is “functional agonists; also recorded: increased the activity of intracellular alkaline phosphatase in a concentration-dependent manner”. For the same compound, in assay [5], the “Efficacy (% maximal response relative to RU-486), CV-1 cells” value was < 20% and the IC50 was > 10000 nM. The “Progesterone receptor agonist/antagonist activity” value in assay [6] is given as “progesterone receptor agonist activity”.

Turning to `CC1(C)[C@@H](Br)CC[C@@]2(C)Oc3cc(Br)c(O)cc3C[C@@H]12` [cymobarbatol], the Antimutagen activity result in assay [1] is on record as “highly active antimutagens”.
